Measurements published in the supplement of paper PMC10307832.

What was measured:
Experiment in all cases: relative viability (nuclei count vs DMSO), 5 days (fraction); higher = more cells survive
[1] = compound: C1CN(CCC1C(C2=CC3=C(C=C2)OCO3)(C4=CC5=C(C=C4)OCO5)O)C(=O)OC6=CC=C(C=C6)[N+](=O)[O-] [JZL-184]
Method in brief: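 Following overnight incubation at 37 °C, lung cancer cell lines in 1536-well plates were pinned with five library-drug doses (not always all listed) in √10 steps on vehicle-anchored plates. The cells then spent 5 days without medium change before a combined fix, permeabilisation and Hoechst stain, 4× imaging and MetaXpress nuclear counts. Viability is the treated-to-vehicle ratio of nuclei, taken as the median across plates. Only plates with control CV below 25% and at least one doubling passed.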

[2] = compound: C1CN(CCC1C(C2=CC3=C(C=C2)OCO3)(C4=CC5=C(C=C4)OCO5)O)C(=O)OC6=CC=C(C=C6)[N+](=O)[O-] [JZL-184] + N=C(N)NC(=N)NCCc1ccccc1 [Phenformin] (partner 250 µM)
Method in brief: (§1)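 Cells from lung cancer lines were seeded into 1536-well plates and, one day later, dosed by pin tool. Treatments were either a single drug or a fixed dose of an anchor drug with five library-drug doses (not always all listed) in √10 steps. After 5 days, nuclei were stained in a one-step fixation (final 0.05% Triton X-100, 1% formaldehyde, 1 ug/ml Hoechst) and counted on 4× images, and relative viability is the treated-to-vehicle nuclei ratio, as the median of duplicate plates.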

[3] = compound: C1CN(CCC1C(C2=CC3=C(C=C2)OCO3)(C4=CC5=C(C=C4)OCO5)O)C(=O)OC6=CC=C(C=C6)[N+](=O)[O-] [JZL-184] + COc1cc2c(Oc3ccc(NC(=O)C4(C(=O)Nc5ccc(F)cc5)CC4)cc3F)ccnc2cc1OCCCN1CCOCC1 [Foretinib] (partner 0.25 µM)
Method in brief: as §1

[4] = compound: C1CN(CCC1C(C2=CC3=C(C=C2)OCO3)(C4=CC5=C(C=C4)OCO5)O)C(=O)OC6=CC=C(C=C6)[N+](=O)[O-] [JZL-184] + Cc1cc(Nc2cc(N3CCN(C)CC3)nc(Sc3ccc(NC(=O)C4CC4)cc3)n2)n[nH]1 [Tozasertib] (partner 0.1 µM)
Method in brief: as §1

[5] = compound: C1CN(CCC1C(C2=CC3=C(C=C2)OCO3)(C4=CC5=C(C=C4)OCO5)O)C(=O)OC6=CC=C(C=C6)[N+](=O)[O-] [JZL-184] + CCNC(=O)c1noc(-c2cc(C(C)C)c(O)cc2O)c1-c1ccc(CN2CCOCC2)cc1 [Luminespib] (partner 0.01 µM)
Method in brief: as §1

[6] = compound: C1CN(CCC1C(C2=CC3=C(C=C2)OCO3)(C4=CC5=C(C=C4)OCO5)O)C(=O)OC6=CC=C(C=C6)[N+](=O)[O-] [JZL-184] + COc1cccc2cc(-c3nc([C@H]4CC[C@H](C(=O)O)CC4)n4ncnc(N)c34)[nH]c12 [OSI-027] (partner 0.5 µM)
Method in brief: as §1

[7] = compound: C1CN(CCC1C(C2=CC3=C(C=C2)OCO3)(C4=CC5=C(C=C4)OCO5)O)C(=O)OC6=CC=C(C=C6)[N+](=O)[O-] [JZL-184] + Cc1nc(Nc2ncc(C(=O)Nc3c(C)cccc3Cl)s2)cc(N2CCN(CCO)CC2)n1 [Dasatinib] (partner 0.075 µM)
Method in brief: as §1

[8] = compound: C1CN(CCC1C(C2=CC3=C(C=C2)OCO3)(C4=CC5=C(C=C4)OCO5)O)C(=O)OC6=CC=C(C=C6)[N+](=O)[O-] [JZL-184] + O=C(c1cc(Cc2n[nH]c(=O)c3ccccc23)ccc1F)N1CCN(C(=O)C2CC2)CC1 [Olaparib] (partner 8 µM)
Method in brief: as §1

[9] = compound: C1CN(CCC1C(C2=CC3=C(C=C2)OCO3)(C4=CC5=C(C=C4)OCO5)O)C(=O)OC6=CC=C(C=C6)[N+](=O)[O-] [JZL-184] + Nc1nc2[nH]cc(CCc3ccc(C(=O)N[C@@H](CCC(=O)O)C(=O)O)cc3)c2c(=O)[nH]1 [Pemetrexed] (partner 0.2 µM)
Method in brief: as §1

[10] = compound: C1CN(CCC1C(C2=CC3=C(C=C2)OCO3)(C4=CC5=C(C=C4)OCO5)O)C(=O)OC6=CC=C(C=C6)[N+](=O)[O-] [JZL-184] + CC(=O)c1c(C)c2cnc(Nc3ccc(N4CCNCC4)cn3)nc2n(C2CCCC2)c1=O [Palbociclib] (partner 0.5 µM)
Method in brief: as §1

[11] = compound: C1CN(CCC1C(C2=CC3=C(C=C2)OCO3)(C4=CC5=C(C=C4)OCO5)O)C(=O)OC6=CC=C(C=C6)[N+](=O)[O-] [JZL-184] + CC(=O)Nc1cccc(-n2c(=O)n(C3CC3)c(=O)c3c(Nc4ccc(I)cc4F)n(C)c(=O)c(C)c32)c1 [Trametinib] (partner 0.02 µM)
Method in brief: as §1

[12] = compound: C1CN(CCC1C(C2=CC3=C(C=C2)OCO3)(C4=CC5=C(C=C4)OCO5)O)C(=O)OC6=CC=C(C=C6)[N+](=O)[O-] [JZL-184] + Nc1ncn([C@H]2C[C@H](O)[C@@H](CO)O2)c(=O)n1 [Decitabine] (partner 2 µM)
Method in brief: as §1

[13] = compound: C1CN(CCC1C(C2=CC3=C(C=C2)OCO3)(C4=CC5=C(C=C4)OCO5)O)C(=O)OC6=CC=C(C=C6)[N+](=O)[O-] [JZL-184] + NC(=O)Nc1cc(-c2cccc(F)c2)sc1C(=O)N[C@H]1CCCNC1 [AZD7762] (partner 0.2 µM)
Method in brief: as §1

[14] = compound: C1CN(CCC1C(C2=CC3=C(C=C2)OCO3)(C4=CC5=C(C=C4)OCO5)O)C(=O)OC6=CC=C(C=C6)[N+](=O)[O-] [JZL-184] + O=C(CCCCCCC(=O)Nc1ccccc1)NO [Vorinostat] (partner 1 µM)
Method in brief: as §1

NCI-H1623
relative viability ([1]; 0.04 µM): 0.941
relative viability ([1]; 0.4 µM): 0.988
relative viability ([1]; 1.265 µM): 1
relative viability ([1]; 4 µM): 0.937
relative viability ([2]; first compound 0.04 µM): 0.566
relative viability ([2]; first compound 0.4 µM): 0.551
relative viability ([2]; first compound 1.265 µM): 0.595
relative viability ([2]; first compound 4 µM): 0.565
relative viability ([3]; first compound 0.04 µM): 0.904
relative viability ([3]; first compound 0.4 µM): 0.818
relative viability ([3]; first compound 1.265 µM): 0.944
relative viability ([3]; first compound 4 µM): 0.807
relative viability ([4]; first compound 0.04 µM): 0.453
relative viability ([4]; first compound 0.4 µM): 0.442
relative viability ([4]; first compound 1.265 µM): 0.442
relative viability ([4]; first compound 4 µM): 0.482
relative viability ([5]; first compound 0.04 µM): 0.389
relative viability ([5]; first compound 0.4 µM): 0.411
relative viability ([5]; first compound 1.265 µM): 0.626
relative viability ([5]; first compound 4 µM): 0.585
relative viability ([6]; first compound 0.04 µM): 0.463
relative viability ([6]; first compound 0.4 µM): 0.438
relative viability ([6]; first compound 1.265 µM): 0.464
relative viability ([6]; first compound 4 µM): 0.446
relative viability ([7]; first compound 0.04 µM): 0.512
relative viability ([7]; first compound 0.4 µM): 0.561
relative viability ([7]; first compound 1.265 µM): 0.573
relative viability ([7]; first compound 4 µM): 0.47

NCI-H1648
relative viability ([1]; 0.04 µM): 0.593
relative viability ([1]; 0.4 µM): 0.893
relative viability ([1]; 1.265 µM): 1.07
relative viability ([1]; 4 µM): 1.08
relative viability ([8]; first compound 0.04 µM): 1.03
relative viability ([8]; first compound 0.4 µM): 0.853
relative viability ([8]; first compound 1.265 µM): 0.783
relative viability ([8]; first compound 4 µM): 0.626
relative viability ([9]; first compound 0.04 µM): 0.712
relative viability ([9]; first compound 0.4 µM): 0.832
relative viability ([9]; first compound 1.265 µM): 0.651
relative viability ([9]; first compound 4 µM): 0.564
relative viability ([4]; first compound 0.4 µM): 0.491
relative viability ([4]; first compound 1.265 µM): 0.466
relative viability ([4]; first compound 4 µM): 0.538
relative viability ([10]; first compound 0.04 µM): 0.271
relative viability ([10]; first compound 0.4 µM): 0.238
relative viability ([10]; first compound 1.265 µM): 0.233
relative viability ([10]; first compound 4 µM): 0.297
relative viability ([11]; first compound 0.04 µM): 0.402
relative viability ([11]; first compound 0.4 µM): 0.413
relative viability ([11]; first compound 1.265 µM): 0.481
relative viability ([11]; first compound 4 µM): 0.445
relative viability ([12]; first compound 0.04 µM): 0.437
relative viability ([12]; first compound 0.4 µM): 0.551
relative viability ([12]; first compound 1.265 µM): 0.546
relative viability ([12]; first compound 4 µM): 0.549
relative viability ([6]; first compound 0.4 µM): 0.24
relative viability ([6]; first compound 1.265 µM): 0.257
relative viability ([6]; first compound 4 µM): 0.223
relative viability ([13]; first compound 0.04 µM): 0.694
relative viability ([13]; first compound 0.4 µM): 0.719
relative viability ([13]; first compound 1.265 µM): 0.824
relative viability ([13]; first compound 4 µM): 0.706
relative viability ([14]; first compound 0.04 µM): 0.307
relative viability ([14]; first compound 0.4 µM): 0.434
relative viability ([14]; first compound 1.265 µM): 0.754
relative viability ([14]; first compound 4 µM): 0.421
